Like-named read-outs stand apart in the source and are kept apart here.
Biological target: T1, FAAH (Rattus norvegicus, UniProt P97612)
T1 construct: Preparation of Rat Brain Membranes Preparations (FAAH Enzyme Solution); from tissue; host or cells: rat cerebrum (brain membrane preparation)
T1 sequence (P97612 1-579): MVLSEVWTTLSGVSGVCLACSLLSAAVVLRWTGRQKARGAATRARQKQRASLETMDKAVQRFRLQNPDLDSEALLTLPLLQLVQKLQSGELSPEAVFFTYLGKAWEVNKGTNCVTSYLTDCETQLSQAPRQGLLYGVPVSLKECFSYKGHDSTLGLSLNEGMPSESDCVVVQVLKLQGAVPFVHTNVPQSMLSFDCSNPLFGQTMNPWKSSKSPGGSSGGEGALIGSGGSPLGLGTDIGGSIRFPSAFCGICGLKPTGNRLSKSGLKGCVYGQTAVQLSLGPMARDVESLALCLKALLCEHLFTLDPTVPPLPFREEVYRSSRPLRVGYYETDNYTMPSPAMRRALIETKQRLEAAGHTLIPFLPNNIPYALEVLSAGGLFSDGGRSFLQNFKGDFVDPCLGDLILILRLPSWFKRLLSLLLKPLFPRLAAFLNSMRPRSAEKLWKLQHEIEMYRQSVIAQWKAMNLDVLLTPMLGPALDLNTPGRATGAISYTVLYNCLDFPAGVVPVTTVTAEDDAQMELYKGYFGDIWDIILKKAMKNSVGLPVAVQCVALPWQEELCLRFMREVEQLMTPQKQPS
Assay: Determination of FAAH inhibitory activity in rat (rat brain membrane preparations, [3H]-anandamide hydrolysis)
Assay type: biochemical
Settings: rat brain membrane preparations; for IC50: read-out: FAAH Inhibition IC50
Procedure, shortened: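 Compounds tested from 0.1 nM to 1 μM to derive IC50 against FAAH hydrolysis in rat brain membrane preparations (100 μg/mL). A 10-min 37 °C preincubation was followed by 10 min with [3H]-anandamide (2 nM) mixed with 2 μM unlabelled anandamide. Radioactive ethanolamine was extracted into the water/methanol layer and counted.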

[1] = 100 nM test substance, read-out: FAAH Inhibition, Inhibition Rate at 100 nM
[2] = at 100 nM, read-out: FAAH Inhibition Inhibition Rate at 100 nM

| Structure (SMILES) | inhibition at 0.1 µM [1] [%] | IC50 (test substance 0.1 nM to 1 μM) [nM] | inhibition at 0.1 µM [2] [%] | IC50 [nM] |
| --- | --- | --- | --- | --- |
| CCN(C)C(=O)n1c(=O)n(C)c2nc(-c3ccncc3)ncc21 [Example 220, N-Ethyl-N,9-dimethyl-8-oxo-2-(pyridin-4-yl)-8,9-dihydro-7H-purine-7-carboxamide] | 105 | 7 |  |  |
| Cn1c(=O)n(C(=O)N2CCC2)c2nc(COc3cccc(Cl)c3)ncc21 [Example 419] | 81 | 31 |  |  |
| Cc1cccc(OCCCc2ncc3c(n2)n(C(=O)N(C)C)c(=O)n3C)c1 [Example 397] | 76 | 32 |  |  |
| Cn1c(=O)n(C(=O)N2CCCC2)c2nc(Cc3cccc(F)c3)ncc21 [Example 286, 2-(3-Fluorobenzyl)-7-methyl-9-(pyrrolidin-1-ylcarbonyl)-7,9-dihydro-8H-purine-8-one] | 86 | 59 |  |  |
| Cc1ccccc1Cc1ncc2c(n1)n(C)c(=O)n2C(=O)N1CCCC1 [Example 257, 9-Methyl-2-(2-methylbenzyl)-7-(pyrrolidin-1-ylcarbonyl)-7,9-dihydro-8H-purine-8-one] | 88 | 51 |  |  |
| COc1ccc(-c2ncc3c(n2)n(C(=O)N2CCCC2)c(=O)n3C)cn1 [Example 250, 2-(6-Methoxypyridin-3-yl)-7-methyl-9-(pyrrolidin-1-ylcarbonyl)-7,9-dihydro-8H-purine-8-one] | 78 | 63 |  |  |
| COc1cccc(-c2ncc3c(n2)n(C)c(=O)n3C(=O)N(C)CCN2CCOCC2)c1 [Example 111] | 46 | 60 |  |  |
| CC(C)Oc1cccc(CCc2ncc3c(n2)n(C(=O)N(C)C)c(=O)n3C)c1 [compound 536] | 41 | 131 |  |  |
| Cn1c(=O)n(C(=O)N2CCC2)c2nc(-c3ccc(OC(F)(F)F)cc3)ncc21 [compound 351] | 104 | 10 |  |  |
| CN1CCN(C(=O)n2c(=O)n(C)c3nc(-c4ccccc4)ncc32)CC1 [Example 26] | 38 | > 100 |  |  |
| CN(C)C(=O)n1c(=O)n(C)c2cnc(CCCCc3ccccc3)nc21 [Example 618] |  |  | 101 | 10 |
| Cn1c(=O)n(C(=O)N2CCCC2)c2cnc(Cc3cccc(F)c3)nc21 [Example 255, 2-(3-Fluorobenzyl)-9-methyl-7-(pyrrolidin-1-ylcarbonyl)-7,9-dihydro-8H-purine-8-one] | 100 | 14 |  |  |
| CN(C)C(=O)n1c(=O)n(C)c2cnc(CCc3ccccc3OC(F)(F)F)nc21 [compound 549] | 77 | 22 |  |  |
| CCn1c(=O)n(C(=O)N2CCCC2)c2cnc(-c3ccccc3)nc21 [Example 303] | 101 | 7 |  |  |
| CN(C)C(=O)n1c(=O)n(C)c2cnc(CCc3ccccc3F)nc21 [compound 499] | 91 | 28 |  |  |
| CN(C)C(=O)n1c(=O)n(C)c2cnc(COc3ccccc3C(F)(F)F)nc21 [Example 429] | 84 | 23 |  |  |
| CCCc1ncc2c(n1)n(C(=O)N1CC(c3cccc(F)c3)C1)c(=O)n2C [Example 633] |  |  | 82 | 19 |
| Cn1c(=O)n(C(=O)N2CCC2)c2nc(CCc3ccc(C(F)F)cc3)ncc21 [Example 576, 9-(Azetidin-1-ylcarbonyl)-2-{2-[4-(difluoromethyl)phenyl]ethyl}-7-methyl-7,9-dihydro-8H-purine-8-one] | 110 | 10 |  |  |
| COc1cccc(-c2ncc3c(n2)n(C)c(=O)n3C(=O)N2CCN(CCc3ccccc3)CC2)c1 [Example 67, 2-(3-Methoxyphenyl)-9-methyl-7-{[4-(2-phenylethyl-)piperazin-1-yl]carbonyl}-7,9-dihydro-8H-purine-8-one] | 97 | 7 |  |  |
| COCc1ncc2c(n1)n(C1CC1)c(=O)n2C(=O)N1CC(c2ccccc2)C1 [compound 663] |  |  | 88 | 24 |
| CN(C)C(=O)n1c(=O)n(C)c2cnc(CCc3cccc(OCC(F)F)c3)nc21 [Example 530, 2-{2-[3-(2,2-Difluoroethoxy)phenyl]ethyl}-N,N,7-trimethyl-8-oxo-7,8-dihydro-9H-purine-9-carboxamide] | 66 | 52 |  |  |

| Structure (SMILES) | inhibition at 0.1 µM [1] [%] | IC50 (test substance 0.1 nM to 1 μM) [nM] | inhibition at 0.1 µM [2] [%] | IC50 [nM] |
| --- | --- | --- | --- | --- |
| CCOc1ccc(Cc2ncc3c(n2)n(C)c(=O)n3C(=O)N2CCCC2)cc1 [compound 263] | 75 | 68 |  |  |
| CN(C)C(=O)n1c(=O)n(C)c2cnc(-c3ccc(C(F)F)cc3)nc21 [Example 330, 2-[4-(Difluoromethyl)phenyl]-N,N,7-trimethyl-8-oxo-7,8-dihydro-9H-purine-9-carboxamide] | 62 | 95 |  |  |
| CN(C(=O)n1c(=O)n(C)c2nc(-c3ccccc3)ncc21)C1CCCCC1 [Example 43] | 20 | > 100 |  |  |
| COc1ccc(/C=C/c2ncc3c(n2)n(C)c(=O)n3C(=O)N2CCCC2)cc1 [Example 4, 2-[(E)-2-(4-Methoxyphenyl)ethenyl]-9-methyl-7-(pyrrolidin-1-ylcarbonyl)-7,9-dihydro-8H-purine-8-one] | 99 | 10 |  |  |
| CCOc1ccc(-c2ncc3c(n2)n(C)c(=O)n3C(=O)N2CCCC2)cn1 [compound 210] | 103 | 8 |  |  |
| Cn1c(=O)n(C(=O)N2CCCC2)c2nc(CCc3cccc(C(F)(F)F)c3)ncc21 [Example 313, 7-Methyl-9-(pyrrolidin-1-ylcarbonyl)-2-{2-[3-(trifluoromethyl)phenyl]ethyl}-7,9-dihydro-8H-purine-8-one] | 103 | 11 |  |  |
| CCCCOc1cccc(-c2ncc3c(n2)n(C(=O)N2CCC2)c(=O)n3C)c1 [compound 348] | 90 | 28 |  |  |
| CCn1c(=O)n(C(=O)N2CC(c3ccccc3)C2)c2cnc(COC)nc21 [Example 655, 9-Ethyl-2-(methoxymethyl)-7-[(3-phenylazetidin-1-yl)carbonyl]-7,9-dihydro-8H-purine-8-one] |  |  | 102 | 10 |
| COc1ccc(-c2ncc3c(n2)n(C(=O)N2CCC2)c(=O)n3C)cc1 [Example 356, 9-(Azetidin-1-ylcarbonyl)-2-(4-methoxyphenyl)-7-methyl-7,9-dihydro-8H-purine-8-one] | 72 | 95 |  |  |
| CCCCc1ccc(CCc2ncc3c(n2)n(C(=O)N(C)C)c(=O)n3C)cc1 [compound 508] | 100 | 5 |  |  |
| CCCOCc1ncc2c(n1)n(C)c(=O)n2C(=O)N1CC(c2ccc(F)cc2)C1 [compound 470] | 103 | 2 |  |  |
| CN(C)C(=O)n1c(=O)n(C)c2cnc(CCc3ccc(F)cc3)nc21 [Example 533, 2-[2-(4-Fluorophenyl)ethyl]-N,N,7-trimethyl-8-oxo-7,8-dihydro-9H-purine-9-carboxamide] | 53 | 99 |  |  |
| Cn1c(=O)n(C(=O)N2CCN(c3ccccc3)CC2)c2cnc(-c3ccccc3)nc21 [Example 120, 9-Methyl-2-phenyl-7-[(4-phenylpiperazin-1-yl)carbonyl]-7,9-dihydro-8H-purine-8-one] | 101 | 11 |  |  |
| Cn1c(=O)n(C(=O)N2CCCC2)c2nc(-c3ccc(F)nc3)ncc21 [Example 249] | 55 | 91 |  |  |
| COc1cccc(-c2ncc3c(n2)n(C)c(=O)n3C(=O)N2CC[C@H](F)C2)c1 [Example 63, 7-{[(3S)-3-Fluoropyrrolidin-1-yl]carbonyl}-2-(3-methoxyphenyl)-9-methyl-7,9-dihydro-8H-purine-8-one] | 100 | 17 |  |  |
| COc1cccc(N2CCN(C(=O)n3c(=O)n(C)c4nc(-c5ccccc5)ncc43)CC2)c1 [Example 121, 7-{[4-(3-Methoxyphenyl)piperazin-1-yl]carbonyl}-9-methyl-2-phenyl-7,9-dihydro-8H-purine-8-one] | 98 | 42 |  |  |
| Cn1c(=O)n(C(=O)N2CCCC2)c2cnc(-c3ccc(F)c(F)c3)nc21 [compound 190] | 100 | 6 |  |  |
| CCCc1ncc2c(n1)n(C)c(=O)n2C(=O)N1CC(c2ccccc2)C1 [compound 626] |  |  | 128 | 4 |
| Cn1c(=O)n(C(=O)N2CCC2)c2cnc(COc3cccc(OC(F)F)c3)nc21 [Example 437] | 96 | 11 |  |  |
| Cn1c(=O)n(C(=O)N2CCCC2)c2nc(/C=C/c3cccc(C(F)(F)F)c3)ncc21 [Example 244, 7-Methyl-9-(pyrrolidin-1-ylcarbonyl)-2-{(E)-2-[3-(trifluoromethyl)phenyl]ethenyl}-7,9-dihydro-8H-purine-8-one] | 86 | 11 |  |  |
